Measurements published in US20230272029A1, “CO-AGONISTS AT GLP-1 AND GIP RECEPTORS SUITABLE FOR ORAL DELIVERY” (Novo Nordisk A/S, priority 2020, published 2023).
Starred links: 1 amine or outer side, 2 acyl side, 3 side chain; linkers in the order of their positions; H or OH if unused. Non-standard residues stand in square brackets, D forms with d. Residues, ends and D or L forms follow the SMILES beside them. Groups on a side chain read outwards from the residue. *: point of attachment. C18 diacid = O=C(O)CCCCCCCCCCCCCCCCC(=O)*; γGlu = O=C(O)[C@H](CCC(=O)[*:2])N[*:1]; AEEA = NCCOCCOCC(=O)O; Aib = CC(C)(N)C(=O)O

Experiment: Pharmacokinetic study in dogs after oral dosing of tablets with SNAC
Format: in vivo, Beagle dogs
Conditions: dog, in vivo, po
Procedure, shortened: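 Male beagle dogs were fasted and given a single oral tablet containing 3-4 mg test substance with 100-300 mg SNAC, in groups of 6-8. Plasma from serial EDTA blood samples was analysed by LC-MS, and t1/2, Cmax/D, tmax and AUC/D were obtained by non-compartmental analysis.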

CC[C@H](C)[C@H](NC(=O)[C@H](Cc1ccccc1)NC(=O)[C@H](CCC(=O)O)NC(=O)[C@H](CCCNC(=N)N)NC(=O)[C@H](C)NC(=O)[C@H](C)NC(=O)[C@H](CCC(N)=O)NC(=O)[C@H](CCCCNC(=O)COCCOCCNC(=O)COCCOCCNC(=O)CC[C@H](NC(=O)CCCCCCCCCCCCCCCCC(=O)O)C(=O)O)NC(=O)[C@H](CCC(=O)O)NC(=O)[C@H](CC(C)C)NC(=O)[C@H](Cc1ccc(O)cc1)NC(=O)[C@@H](NC(=O)[C@H](CO)NC(=O)[C@H](Cc1ccc(O)cc1)NC(=O)[C@H](CC(=O)O)NC(=O)[C@H](CO)NC(=O)[C@@H](NC(=O)[C@H](Cc1ccccc1)NC(=O)[C@@H](NC(=O)CNC(=O)[C@H](CCC(=O)O)NC(=O)C(C)(C)NC(=O)[C@@H](N)Cc1ccc(O)cc1)[C@@H](C)O)[C@@H](C)O)[C@@H](C)CC)C(=O)N[C@@H](CCC(=O)O)C(=O)N[C@@H](Cc1c[nH]c2ccccc12)C(=O)N[C@@H](CC(C)C)C(=O)N[C@@H](CC(C)C)C(=O)N[C@@H](C)C(=O)NCC(=O)NCC(=O)N1CCC[C@H]1C(=O)N[C@@H](CO)C(=O)N[C@@H](CO)C(=O)NCC(=O)N[C@@H](C)C(=O)N1CCC[C@H]1C(=O)N1CCC[C@H]1C(=O)N1CCC[C@H]1C(=O)N[C@@H](CO)C(=O)O [Compound No. 10] (H-Y[Aib]EGTFTSDYSIYLEK([AEEA-AEEA-γGlu-C18 diacid])QAAREFIEWLLAGGPSSGAPPPS-OH)
AUC/Dose: 8.4 kg·h/L | Cmax/Dose: 0.20 kg/L
